Read-outs that look alike come from different tables or passages of the source.
How the values were obtained:
[1] = test system: P. falciparum NF54 strain; design: method as in PMID 29896963; conditions: drug sensitive NF54 strain; cited from earlier work
T. b. rhodesiense = test system: T. b. rhodesiense; design: method as in PMID 29896963; conditions: cited from earlier work
[2] = test system: P. falciparum Dd2Luc intraerythrocytic trophozoites; assay: Initial screen, intraerythrocytic P. falciparum, Malaria SYBR-Green I fluorescence assay; assay type: cell-based, Plasmodium falciparum; conditions: for activity at 2 µM / inhibition of growth at 2 µM: Plasmodium falciparum, 48 h; for initial hit against P. falciparum: 2 μM, growth reduced by ≥50%; for inhibition of growth at 2 µM: read-out: initial hit P.f
Procedure, shortened: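 L. mexicana axenic amastigotes at 1 × 10^6 cells/mL exposed 72 h to compounds at 2 μM, growth read by Alamar Blue; P. falciparum trophozoites at 0.5% parasitaemia, 2% haematocrit, 48 h at 2 μM, SYBR-Green I read-out. Growth normalised to 1% DMSO; hits ≥50% growth reduction.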

in vitro = conditions: human
Procedure, shortened: (§1)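 Human hepatoma cells seeded at 1 × 10^5 cells/mL with two-fold serial compound dilutions, incubated 48 h at 37 °C, 5% CO2 in DMEM/10% FBS. Viability read by Alamar Blue. CC50 estimated from viability normalised to untreated controls versus log concentration.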

[3] = test system: T. brucei bloodstream form; assay: Initial screen, T. brucei bloodstream form, Alamar Blue; assay type: cell-based, Trypanosoma brucei brucei; conditions: for initial hit against T. brucei: growth reduced by ≥50%; for activity at 2 µM / inhibition of growth at 2 µM: Trypanosoma brucei; for inhibition of growth at 2 µM: read-out: initial hit T.b
Procedure, shortened: (§2)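 Bloodstream-form T. evansi Antat 3/3 and T. brucei Lister 427 were grown in HMI-11 with 10% FBS at 37 °C. Parasites were plated at 1×10^5 cells/mL with compound at 1 μM (T. evansi) or 2 μM (T. brucei) for 48 h, and growth was read by Alamar Blue relative to 1% DMSO controls (n = 6).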

P. falciparum Dd2Luc [4] = assay: Concentration-response EC50, P. falciparum Dd2Luc; assay type: cell-based, Plasmodium falciparum; conditions: Plasmodium falciparum, 48 h, read-out: P. falciparum Dd2Luc EC50, intraerythrocytic, 48 h
Excerpt: (§3) Initial hits from the parasite panel screen were taken forward in log concentration versus normalised response assays to estimate the half maximal effective concentration (EC50) in hit species as well as the half maximal cytotoxic concentrations (CC50) in the human hepatoma cell line HepG2 as a preliminary test for selectivity. Using CC50/EC50 to define the selectivity index (SI), the selectivity for each compound in a defined species compared to a human cell line was estimated and compared to the EC50 (Figure 3).
(§4) EC50 values were determined by serial two-fold dilution of each compound in 96 well plates. Culture conditions and viability assays were as stated for the initial screen, with some exceptions. L. mexicana and L. donovani axenic amastigotes were seeded at 2 × 10^6 cell/s mL, T. brucei and T. evansi were seeded at 2 × 10^5 cells/mL. For cytotoxicity studies, HepG2 cells were seeded at 1 × 10^5 cells/mL, incubated for 48 h and viability was assessed using the Alamar Blue assay [66, 67]. […] Normalised growth and viability data (compared to untreated controls) were plotted against Log10 concentration to estimate EC50 in GraphPad (Prism v6).

P. falciparum 3D7 = assay: Concentration-response EC50, P. falciparum 3D7; assay type: cell-based; conditions: Plasmodium falciparum
Excerpt: This is not surprising as the rate of kill is a result of the mechanism of cell death and, given their structural similarity, these three bisobolane sesquiterpene glycosides likely share the same target(s), albeit with some differences in affinity. The rate of kill, relatively, falls between that of atovaquone and dihydroartemisinin and is more similar to that of chloroquine.

[5] = test system: L. mexicana axenic amastigotes; assay: Initial screen, L. mexicana axenic amastigotes, Alamar Blue; assay type: cell-based, Leishmania mexicana
Procedure, shortened: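 Purified temperate plant natural products from a commercial library (1 mg/mL in DMSO) were tested against Leishmania mexicana axenic amastigotes at a final 2 μM. Parasites were seeded at 1 × 10^6 cells/mL in 96-well plates containing 200 μL culture and incubated 72 h. Growth was measured by Alamar Blue and normalised to DMSO controls (1% v/v), with triplicates over two biological replicates (n = 6).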

T. brucei = assay: Concentration-response EC50, T. brucei; assay type: cell-based, Trypanosoma brucei brucei; conditions: for EC50: 48 h; for selectivity index (HepG2 CC50 / T. brucei EC50): preliminary selectivity against HepG2
P. falciparum Dd2Luc [6] = test system: P. falciparum Dd2Luc; design: method as in PMID 27999014; conditions: control compounds; cited from earlier work
[7] = test system: T. evansi bloodstream form; assay: Initial screen, T. evansi bloodstream form, Alamar Blue; assay type: cell-based, Trypanosoma evansi
Procedure, shortened: as §2

HepG2 cells [8] = assay: Cytotoxicity CC50, HepG2, Alamar Blue; conditions: 48 h
Procedure, shortened: as §1

T. evansi = assay: Concentration-response EC50, T. evansi; assay type: cell-based; conditions: Trypanosoma evansi, 48 h, read-out: T. evansi EC50
Excerpt: as §3, §4

HepG2 cells [9] = test system: HepG2 cells; design: method as in PMID 31617221; conditions: cited from earlier work
[10] = test system: L. mexicana axenic amastigotes; assay: Concentration-response EC50, L. mexicana axenic amastigotes (WT); assay type: cell-based, Leishmania mexicana; conditions: read-out: L. mexicana EC50; axenic amastigotes, 72 h
Excerpt: as §3, §4

[11] = test system: activated monocyte cell line (THP-1); assay: Cytotoxicity CC50, differentiated THP-1, Alamar Blue; assay type: cell-based, human; conditions: differentiated THP-1, 48 h; read-out: THP1 CC50
Excerpt: The four lanosterone-like sterols derived from the Noble Fir Abies procera (700022, 700107, 700136) and the Grand Fir Abies grandis (700240) were the only initial compounds taken forward for L. mexicana due to their nanomolar activity and apparent low cytotoxicity (Figure 3a). […] Understanding the impact of the ring-opened lactone head group in this compound compared to the other three warrants further analysis in exploring their structure-activity relationships. These four sterols were also tested for growth inhibitory activity against L. donovani axenic amastigotes. […] As Leishmania spp. amastigotes typically reside with macrophages, further cytotoxicity assays with these sterols were performed against an activated monocyte cell line (THP-1) (Figure 4b). […]

[12] = read-out: mean % growth, P. falciparum, initial screen, compared to a normalised control with same concentration of DMSO solvent
[13] = initial screen, compared to a normalised control with same concentration of DMSO solvent, read-out: mean % growth, T. b. brucei
[14] = Leishmania mexicana, read-out: mean % growth, L. mexicana, initial screen, compared to a normalised control with same concentration of DMSO solvent
[15] = Trypanosoma brucei, bloodstream form, read-out: T. brucei EC50
[16] = read-out: %growth P. falciparum, mean % growth compared to a normalised control with same concentration of DMSO solvent, initial screen
[17] = 3D7, read-out: P. falciparum 3D7 EC50
[18] = Leishmania mexicana, read-out: % growth L. mexicana, mean % growth compared to a normalised control with same concentration of DMSO solvent, initial screen
[19] = Trypanosoma brucei, read-out: T. brucei EC50, bloodstream form, 48 h
[20] = mean % growth compared to a normalised control with same concentration of DMSO solvent, initial screen
[21] = initial screen, compared to a normalised control with same concentration of DMSO solvent

CC(C)c1cc(CC[C@@H]2C(=O)CCCC2(C)C)c(O)cc1O [leriifoliol]
activity against P. falciparum [1]: submicromolar activity
activity against T. b. rhodesiense (T. b. rhodesiense): micromolar activity

CC(=O)OC1C(COC(=O)/C=C/c2ccc(O)cc2)OC(Oc2c(-c3ccc(O)cc3)oc3cc(O)cc(O)c3c2=O)C(OC(=O)/C=C/c2ccc(O)cc2)C1OC(C)=O (centres unmarked) [Compound 701082]
activity at 2 µM [2, 12]: 77%
CC50 at 48 h (in vitro; pH 7, HepG2 CC50): 4600 nM
initial hit against T. brucei ([3]; 2 μM): initial hits
activity at 2 µM [3, 13]: 5%
inhibition of growth at 2 µM ([3]; 2 μM, x = initial hit): > 50%
EC50 (P. falciparum Dd2Luc [4]): 1200 nM
EC50 (P. falciparum 3D7; 3D7, intraerythrocytic, read-out: P. falciparum 3D7 EC50): 1600 nM
activity at 2 µM [5, 14]: 67.8%
EC50 (T. brucei; [15]): 1100 nM

C[C@H]1[C@@H](O)O[C@@H]2O[C@@]3(C)CC[C@H]4[C@H](C)CC[C@@H]1[C@@]24OO3 [dihydroartemisinin]
rate of kill of control antimalarials (P. falciparum Dd2Luc [6]): rapid initial rate of kill with no lag in action

CC(=O)OC1C(C)OC(OC2C(OC(=O)C3CC[C@@H]4[C@H](C3)OC3(CC(OC(=O)/C=C/c5ccccc5)[C@@H](C)CO3)C4(O)CO)OC(C)C(O)C2OC(C)=O)C(O)C1O (some centres unmarked) [Compound 700035]
activity at 1 µM ([7]; Trypanosoma evansi, mean % growth compared to a normalised control with same concentration of DMSO solvent, initial screen, read-out: % growth T. evansi): 105%
activity at 2 µM [2, 16]: 90.1%
CC50 at 48 h (in vitro; pH 7, HepG2 CC50, 48 h): 15200 nM
CC50 (HepG2 cells [8]; read-out: HepG2 CC50): 15000 nM
initial hit against T. brucei ([3]; 2 μM): initial hits
inhibition of growth at 2 µM ([3]; 2 μM, x = initial hit): > 50%
EC50 (T. brucei; [15]): 350 nM
EC50 (T. brucei; bloodstream form, read-out: T. brucei EC50): 360 nM

CC(=O)OC1C(O)C(C)OC(OC2C(OC(=O)C3CC[C@@H]4[C@H](C3)OC3(CC(OC(=O)/C=C/c5ccccc5)[C@@H](C)CO3)C43CO3)OC(CO)C(O)C2O)C1O (some centres unmarked) [Compound 700046]
activity at 1 µM ([7]; Trypanosoma evansi, read-out: % growth T. evansi, mean % growth compared to a normalised control with same concentration of DMSO solvent, initial screen): 2.9%
inhibition of growth at 1 µM ([7]; Trypanosoma evansi, read-out: initial hit T.e): > 50%
EC50 (T. evansi): 118 nM
initial hit against P. falciparum [2]: initial hits
activity at 2 µM [2, 16]: 9.8%
inhibition of growth at 2 µM [2]: > 50%
initial hit against T. brucei ([3]; 2 μM): initial hits
activity at 2 µM ([3]; read-out: % growth T. b. brucei, mean % growth compared to a normalised control with same concentration of DMSO solvent, initial screen): 5.6%
inhibition of growth at 2 µM [3]: > 50%
EC50 (P. falciparum Dd2Luc [4]): 56 nM
EC50 (P. falciparum 3D7; [17]): 34 nM
activity at 2 µM [5, 18]: 83.4%
EC50 (T. brucei; [19]): 180 nM
selectivity index (HepG2 CC50 / T. brucei EC50) (T. brucei): > 10

COc1cc(C[C@H]2C(=O)OC[C@@H]2Cc2ccc(OC)c(OC)c2)ccc1O [arctigenin]
antiproliferative activity against HepG2 cells (HepG2 cells [9]): potent antiproliferative activity

CC1(C)OC2CC(=O)C=CC2(c2cc(=O)c3c(O)cc(O)cc3o2)O1 (centres unmarked) [Compound 700585]
activity at 2 µM [2, 12]: 95.2%
CC50 at 48 h (in vitro; pH 7, HepG2 CC50): < 10000 nM
CC50 (HepG2 cells [8]; human, pH 7): 5300 nM
initial hit against T. brucei ([3]; 2 μM): initial hits
activity at 2 µM [3, 13]: 40.8%
inhibition of growth at 2 µM ([3]; 2 μM, x = initial hit): > 50%
activity at 2 µM [5, 14]: 78%
EC50 (T. brucei; [15]): 430 nM
selectivity index (HepG2 CC50 / T. brucei EC50) (T. brucei): > 10

COC(=O)C1=COC(O)C2C1CC(OC(=O)/C=C/c1ccc(O)cc1)C2C (centres unmarked) [Compound 701145]
activity at 1 µM ([7]; Trypanosoma evansi, initial screen, compared to a normalised control with same concentration of DMSO solvent, read-out: mean % growth, T. evansi): 118%
activity at 2 µM [2, 12]: 96%
CC50 at 48 h (in vitro; pH 7, HepG2 CC50): 27800 nM
CC50 (HepG2 cells [8]; human, pH 7): 28000 nM
initial hit against T. brucei ([3]; 2 μM): initial hits
activity at 2 µM [3, 13]: 3.4%
inhibition of growth at 2 µM ([3]; 2 μM, x = initial hit): > 50%
activity at 2 µM [5, 14]: 48.9%
EC50 (T. brucei; [15]): 520 nM

CC(=O)OC1C(O)C(C)OC(OC2C(OC(=O)C3CC[C@@H]4[C@H](C3)OC3(CC(OC(=O)/C=C/c5ccccc5)[C@@H](C)CO3)C43CO3)OC(CO)C(O)C2OC(C)=O)C1O (some centres unmarked) [Compound 700048]
initial hit against P. falciparum [2]: initial hits
inhibition of growth at 2 µM [2]: > 50%
%growth P. falciparum [2, 20]: 20.3%
initial hit against T. brucei ([3]; 2 μM): initial hits
inhibition of growth at 2 µM [3]: > 50%
% growth T. b. brucei [3, 20]: 5.8%
EC50 (P. falciparum Dd2Luc [4]): 150 nM
EC50 (P. falciparum 3D7; [17]): 360 nM
activity at 2 µM [5, 18]: 89%
EC50 (T. brucei; [19]): 160 nM
selectivity index (HepG2 CC50 / T. brucei EC50) (T. brucei): > 10

C=C1C(=O)OC2CC(C)C3C=CC(=O)C3(C)C(OC(C)=O)C12 (centres unmarked) [Compound 701154]
mean % growth, T. evansi [7, 21]: 79.8%
activity at 2 µM [2, 12]: 66.5%
CC50 (HepG2 cells [8]; read-out: HepG2 CC50): 4200 nM
initial hit against T. brucei ([3]; 2 μM): initial hits
inhibition of growth at 2 µM [3]: > 50%
mean % growth, T. b. brucei [3, 21]: 14.7%
EC50 [10]: 950 nM
CC50 [11]: 1500 nM
initial hit against L. mexicana ([5]; 2 μM, growth inhibited by ≥80%): initial hits
inhibition of growth at 2 µM ([5]; Leishmania mexicana, read-out: initial hit L.m): > 80%
mean % growth, L. mexicana [5, 21]: -0.64%
EC50 (T. brucei; read-out: T. brucei EC50, bloodstream form): 1600 nM

O=C1C(O)=C([C@H]2CC[C@H](c3ccc(Cl)cc3)CC2)C(=O)c2ccccc21 [atovaquone]
rate of kill of control antimalarials (P. falciparum Dd2Luc [6]): slow killing compound with 48 h lag in action

— publication PMC7998250, “Temperate Zone Plant Natural Products—A Novel Resource for Activity against Tropical Parasitic Diseases” (Pharmaceuticals, 2021)
